The subject of this assay is HIV-1 Ba-L or HIV-1 IIIB infection of the HOS cell line (expressing hCXCR4/hCCR5/hCD4/pHIV-LTR-luciferase). Description: HOS HIV-1 Infectivity Assay. The conditions noted are these: Human immunodeficiency virus 1, HOS cells, luciferase readout, strain not given, read-out: Activity Level. Format: cell-based. Here is the method:
Compounds were profiled against two HIV-1 viruses, the M-tropic (CCR5 utilizing) Ba-L strain and the T-tropic (CXCR4 utilizing) IIIB strain. Ba-L was propagated in either peripheral blood lymphocytes or SupT1/CCR5+/CXCR4+ cells. IIIB was propagated in peripheral blood lymphocytes. Compounds were tested for their ability to block infection of the HOS cell line (expressing hCXCR4/hCCR5/hCD4/pHIV-LTR-luciferase) by either HIV-1 Ba-L or HIV-1 IIIB. Compound cytotoxicity was also examined in the absence of virus addition.
HOS cells (expressing hCXCR4/hCCR5/hCD4/pHIV-LTR-luciferase) were harvested and diluted in Dulbeccos modified Eagles media supplemented with 2% FCS to a concentration of 120,000 cells/ml. The cells were plated into 96-well plates (50 μl per well) and the plates were placed in a tissue culture incubator (370° C.; 5% CO2/95% air) for a period of 24 h.
Subsequently, 50 μl of the desired drug solution (2 times the final concentration) was added to each well and the plates were returned to the tissue culture incubator ([…]; 5% CO2/95% air) for 1 h. Following this incubation, 60 μl of diluted virus (4 times the final concentration) was added to 60 μl of 2× the final desired concentration of the compound and 100 μl this compound/virus mix was added to each well (approximately 2 million RLU per well of virus). The plates were returned to the tissue culture incubator ([…]; 5% CO2/95% air) and were incubated for a further 96 h.
Following this incubation the endpoint for the virally infected cultures was quantified following addition of Steady-Glo Luciferase assay system reagent (Promega, Madison, Wis.). Cell viability or non-infected cultures was measured using a CellTiter-Glo luminescent cell viability assay system (Promega, Madison, Wis.). All luminescent readouts are performed on a Topcount luminescence detector (Packard, Meridien, Conn.).
Take `CN1CCN(Cc2c(CN(C)C3CCCc4cccnc43)nc3ccccn23)CC1` (stereo not drawn) [Example 31, N-methyl-N-({3-[(4-methyl-1-piperazinyl)methyl]imidazo[1,2-d]pyridin-2-yl}methyl)-5,6,7,8-tetrahydro-8-quinolinamine]: the IC50 is 100 to 500 nM.

Take `CN(Cc1nc2ccccn2c1CN1CCCC1)[C@H]1CCCc2cccnc21` [Example 9, (8S)-N-Methyl-N-{[3-(1-pyrrolidinylmethyl)imidazo[1,2-a]pyridin-2-yl]methyl}-5,6,7,8-tetrahydro-8-quinolinamine]: the IC50 is less than 100 nM.

On to `CN1CCN(C(=O)c2c(CN(C)C3CCCc4cccnc43)nc3ccccn23)CC1` (stereo not drawn) [Example 37, N-methyl-N-({3-[(4-methyl-1-piperazinyl)carbonyl]imidazo[1,2-a]pyridin-2-yl}methyl)-5,6,7,8-tetrahydro-8-quinolinamine], for which the IC50 fell in the range of 500 to 10000 nM.

Consider `CN(C)CCN(C)c1ccc(-c2c(CN(C)[C@H]3CCCc4cccnc43)nc3ccccn23)cn1` [Example 16, N,N,N′-trimethyl-N′-trimethyl-N′-{5-[2-({methyl[(8S)-5,6,7,8-tetrahydro-8-quinolinyl]amino}methyl)imidazo[1,2-a]pyridin-3-yl]-2-pyridinyl}-1,2-ethanediamine], for which the IC50 is 500 to 10000 nM.

As to `CN(Cc1nc2ccccn2c1-c1ccc(N2CCCC2)nc1)[C@H]1CCCc2cccnc21` [Example 15, (8S)-N-Methyl-N-({3-[6-(1-pyrrolidinyl)-3-pyridinyl]imidazo[1,2-a]pyridin-2-yl}methyl)-5,6,7,8-tetrahydro-8-quinolinamine], the IC50 fell in the range of 100 to 500 nM.

With `CN(C)C1CCN(c2ccc(-c3c(CN(C)[C@H]4CCCc5cccnc54)nc4ccccn34)cn2)C1` (stereo partly drawn) [Example 18, (8S)-N-[(3-{6-[3-(Dimethylamino)-1-pyrrolidinyl]-3-pyridinyl}imidazo[1,2-a]pyridin-2-yl)methyl]-N-methyl-5,6,7,8-tetrahydro-8-quinolinamine], the IC50 lay within 500 to 10000 nM.

As for `COCCN(CCOC)Cc1c(CN(C)[C@H]2CCCc3cccnc32)nc2ccccn12` [Example 19, (8S)-N-{[3-({Bis[2-(methyloxy)ethyl]amino}methyl)imidazo[1,2-a]pyridin-2-yl]methyl}-N-methyl-5,6,7,8-tetrahydro-8-quinolinamine], the IC50 lay in the range of 100 to 500 nM.

For `CN(C)CCNCc1c(CN(C)C2CCCc3cccnc32)nc2ccccn12` (racemic) [Example 30, N,N-dimethyl-N′-[(2-{[methyl(5,6,7,8-tetrahydro-8-quinolinyl)amino]methyl}imidazo[1,2-a]pyridin-3-yl)methyl]-1,2-ethanediamine], the IC50 lay within 100 to 500 nM.

Consider `CN(C)CC(=O)NCc1c(CN(C)[C@H]2CCCc3cccnc32)nc2ccccn12` [Example 7, N^2,N^2-Dimethyl-N^1-{[2-({methyl[(8S)-5,6,7,8-tetrahydro-8-quinolinyl]amino}methyl)imidazo[1,2-a]pyridin-3-yl]methyl}glycinamide], for which the IC50 was less than 100 nM.

Take `CN1CCC(N(C)Cc2c(CN(C)[C@H]3CCCc4cccnc43)nc3ccccn23)C1` (stereo partly drawn) [Example 23, (8S)-N-Methyl-N-[(3-{[methyl(1-methyl-3-pyrrolidinyl)amino]methyl}imidazo[1,2-a]pyridin-2-yl)methyl]-5,6,7,8-tetrahydro-8-quinolinamine]: the IC50 is less than 100 nM.

With `CN(C)Cc1c(CN(C)[C@H]2CCCc3cccnc32)nc2ccccn12` [Example 6, (8S)-N-({3-[(Dimethylamino)methyl]imidazo[1,2-a]pyridin-2-yl}methyl)-N-methyl-5,6,7,8-tetrahydro-8-quinolinamine], the IC50 was less than 100 nM.

Consider `CN(Cc1nc2ccccn2c1C(=O)NCCN1CCCC1)C1CCCc2cccnc21` (stereo not drawn) [Example 35, 2-{[methyl(5,6,7,8-tetrahydro-8-quinolinyl)amino]methyl}-N-[2-(1-pyrrolidinyl)ethyl]imidazo[1,2-a]pyridine-3-carboxamide], for which the IC50 lay within 500 to 10000 nM.

As to `CN1CCC(N(C)Cc2c(CN(C)[C@H]3CCCc4cccnc43)nc3ccccn23)CC1` [Example 24, (8S)-N-Methyl-N-[(3-{[methyl(1-methyl-4-piperidinyl)amino]methyl}imidazo[1,2-a]pyridin-2-yl)methyl]-5,6,7,8-tetrahydro-8-quinolinamine], the IC50 was less than 100 nM.

For the compound `CN(C)C1CCN(C(=O)c2c(CN(C)C3CCCc4cccnc43)nc3ccccn23)C1` (stereo not drawn) [Example 36, N-[(3-{[3-(dimethylamino)-1-pyrrolidinyl]carbonyl}imidazo[1,2-a]pyridin-2-yl)methyl]-N-methyl-5,6,7,8-tetrahydro-8-quinolinamine], the IC50 lay within 100 to 500 nM.

With `CN(Cc1nc2ccccn2c1-c1ccc(N2CCOCC2)nc1)[C@H]1CCCc2cccnc21` [Example 8, (8S)-N-Methyl-N-({3-[6-(4-morpholinyl)-3-pyridinyl]imidazo[1,2-a]pyridin-2-yl}methyl)-5,6,7,8-tetrahydro-8-quinolinamine], the IC50 was 100 to 500 nM.

As for `CN(Cc1nc2ccccn2c1-c1ccnc(N2CCOCC2)c1)[C@H]1CCCc2cccnc21` [Example 29, (8S)-N-Methyl-N-({3-[2-(4-morpholinyl)-4-pyridinyl]imidazo[1,2-a]pyridin-2-yl}methyl)-5,6,7,8-tetrahydro-8-quinolinamine], the IC50 is 100 to 500 nM.

Consider `CN(Cc1nc2ccccn2c1C(=O)N1CC(N)C1)C1CCCc2cccnc21` (stereo not drawn) [Example 34, N-({3-[(3-amino-1-azetidinyl)carbonyl]imidazo[1,2-a]pyridin-2-yl}methyl)-N-methyl-5,6,7,8-tetrahydro-8-quinolinamine], for which the IC50 was 500 to 10000 nM.

`CN1CCN(c2ccc(-c3c(CN(C)[C@H]4CCCc5cccnc54)nc4ccccn34)cn2)CC1` [Example 14, (8S)-N-Methyl-N-({3-[6-(4-methyl-1-piperazinyl)-3-pyridinyl]imidazo[1,2-a]pyridin-2-yl}methyl)-5,6,7,8-tetrahydro-8-quinolinamine]: the IC50 is less than 100 nM.

Regarding `CC(C)N1CCN(C(=O)c2c(CN(C)C3CCCc4cccnc43)nc3ccccn23)CC1` (stereo not drawn) [Example 38, N-methyl-N-[(3-{[4-(1-methylethyl)-1-piperazinyl]carbonyl}imidazo[1,2-a]pyridin-2-yl)methyl]-5,6,7,8-tetrahydro-8-quinolinamine], the IC50 is 500 to 10000 nM.

In the case of `CN(CCC#N)Cc1c(CN(C)[C@H]2CCCc3cccnc32)nc2ccccn12` [Example 27, 3-(Methyl{[2-({methyl[(8S)-5,6,7,8-tetrahydro-8-quinolinyl]amino}methyl)imidazo[1,2-a]pyridin-3-yl]methyl}amino)propanenitrile], the IC50 is less than 100 nM.

`CN(C)CCNC(=O)c1c(CN(C)C2CCCc3cccnc32)nc2ccccn12` (stereo not drawn) [Example 33, N-[2-(dimethylamino)ethyl]-2-{[methyl(5,6,7,8-tetrahydro-8-quinolinyl)amino]methyl}imidazo[1,2-a]pyridine-3-carboxamide]: the IC50 is 500 to 10000 nM.

Consider `CC(C)CN(C)Cc1c(CN(C)[C@H]2CCCc3cccnc32)nc2ccccn12` [Example 26, (8S)-N-Methyl-N-[(3-{[methyl(2-methylpropyl)amino]methyl}imidazo[1,2-a]pyridin-2-yl)methyl]-5,6,7,8-tetrahydro-8-quinolinamine], for which the IC50 was in the range of 100 to 500 nM.

Turning to `CN(Cc1nc2ccccn2c1CNCCCN)C1CCCc2cccnc21` (stereo not drawn) [Example 32, N-[(2-{-[methyl(5,6,7,8-tetrahydro-8-quinolinyl)amino]methyl}imidazo[1,2-a]pyridin-3-yl)methyl]-1,3-propanediamine], the IC50 is 100 to 500 nM.

For `CN(C)CCCc1c(CN(C)[C@H]2CCCc3cccnc32)nc2ccccn12` [Example 3, (8S)-N-({3-[3-(Dimethylamino)propyl]imidazo[1,2-a]pyridin-2-yl}methyl)-N-methyl-5,6,7,8-tetrahydro-8-quinolinamine], the IC50 is less than 100 nM.

As to `CC(C)CNCCCc1c(CN(C)[C@H]2CCCc3cccnc32)nc2ccccn12` [Example 4, (8S)-N-Methyl-N-[(3-{3-[(2-methylpropyl)amino]propyl}imidazo[1,2-a]pyridin-2-yl)methyl]-5,6,7,8-tetrahydro-8-quinolinamine], the IC50 was less than 100 nM.

Turning to `CN(C)c1cc(-c2c(CN(C)[C@H]3CCCc4cccnc43)nc3ccccn23)ccn1` [Example 28, (8S)-N-({3-[2-(Dimethylamino)-4-pyridinyl]imidazo[1,2-a]pyridin-2-yl}methyl)-N-methyl-5,6,7,8-tetrahydro-8-quinolinamine], the IC50 lay within 100 to 500 nM.

For the compound `CN(C)c1ccc(-c2c(CN(C)[C@H]3CCCc4cccnc43)nc3ccccn23)cn1` [Example 11, (8S)-N-({3-[6-(Dimethylamino)-3-pyridinyl]imidazo[1,2-a]pyridin-2-yl}methyl)-N-methyl-5,6,7,8-tetrahydro-8-quinolinamine], the IC50 is less than 100 nM.

Source of the values: US20100227880A1, “CHEMICAL COMPOUNDS” (priority 2006, published 2010).
